Reference: US7432306B2, “Method for preparing novel transcription factors and use” (NRL Pharma, Inc., priority 2005, dated 2008)

Legend:
[1] = cited from earlier work
C57BL ksj (db/db) = conditions: hereditary obese diabetic mouse C57BL ksj (db/db); cited from earlier work
[2] = cited from earlier work; remark: listed apart in the source
ICR male mice [3] = assay: Mouse serum cholesterol lowering action; type: in vivo; conditions: one week; for Total Cholesterol in Serum: ICR mice; for Rate of Change (total cholesterol in serum): vs control
Protocol: Thirty 5-week-old ICR male mice were bred by allowing mouse standard feed and water ad libitum. The mice were randomly classified into three groups, and one group was taken as a control group to which no drug was administered, and feed containing 0.1% of 4-O-methylasco-chlorin diethylacetal (MAC-DEA) and feed containing 0.05% of MAC-DEA were given to the other two groups, respectively. The body weight, the intake of feed and the amount of drinking water were measured every other day. One week after giving feed, blood was collected and the total cholesterol in serum and the neutral fat were determined.

db/db mice = assay: Action of MAC-DEA on db/db mouse; type: in vivo; conditions: for Blood Sugar / Serum Insulin / Serum Neutral Fat: db/db mice
Protocol: Eighteen 7-week-old male db/db mice were bred for one week by allowing mouse standard feed and water ad libitum. The mice were randomly classified into three groups of six mice and each group was housed in a urine collection rat cage and the intake of feed, the amount of drinking water, the amount of urine and the amount of urine sugar excreted were determined everyday. Feed CE-2 was given to the first group as a control group, and feed CE-2 mixed with 0.05% of 4-O-methylascochlorin diethylacetal (MAC-DEA) and feed CE-2 mixed with 0.1% of MAC-DEA were given to the second group and the third group, respectively. The mice were allowed feed and drinking water ad libitum and on the 7th day, blood was collected and the blood sugar, the serum neutral fat and the serum insulin were determined.

ICR male mice [4] = assay: Syngeneic Langerhans islet transplanted streptozotocin diabetic mouse; type: in vivo
Protocol: Thirty 5-week-old ICR male mice were randomly classified into six groups and all mice were fed for one week by allowing mouse standard diet CE-2 (a product of Japan CLEA Co., Ltd.). Then, the mice in the first to third groups were intravenously injected with 50 mg/kg of streptozotocin and after one week, blood was collected from the orbit and the blood sugar and the serum insulin were determined to confirm the onset of insulin-dependent diabetes. Ten days after the streptozotocin injection, pancreatic Langerhans islets were removed from the age-matched normal mice in the fourth to sixth groups and 20 pancreatic Langerhans islets were subcutaneously transplanted in the back of each of the diabetic mice. Immediately after transplantation, diet CE-2 containing 0.1% of MAC-DE was given to the first group, diet CE-2 containing 0.05% of MAC-DE was given to the second group and CE-2 was given to the third group. The diabetic mice were further fed for 60 days, and blood was collected from the orbit and the blood sugar and the serum insulin were determined every 15 days.

ICR male mice [5] = assay: Fat accumulation in ICR mice fed 13 weeks; type: in vivo, mouse; conditions: liver and epididymal adipose tissue
Description: Thirty 5-week-old ICR male mice were randomly classified into three group of ten mice, and mouse standard diet CE-2 (a product of Japan CLEA Co., Ltd.) was given to the first group, and diet CE-2 containing 0.1% of 4-O-methylascochlorin diethylacetal (MAC-DE) was given to the second group and diet CE-2 containing 0.05% of MAC-DE was given to the third group and the mice were continued to be fed. […] After 13 weeks, the liver and the epididymal adipose tissue were removed from the mice and lipid was extracted by the Folch method and the triglyceride content was determined. As a result, the triglyceride content in the 0.05% MAC-DE group was reduced 27%, and the triglyceride content in the 0.1% MAC-DE group was reduced 35%. From this fact it would be understood that MAC-DE inhibits fat accumulation.

ddY male mice = assay: Internal fat accumulation in ddY mice fed 13 weeks; type: in vivo, mouse; conditions: livers and epididymal adipose tissues
Description: Thirty 5-week-old ddY male mice were randomly classified into three groups of ten mice and fed for 13 weeks by allowing feed and water ad libidum. Meanwhile, the mouse standard diet CE-2 (a product of Japan CLEA Co., Ltd.) was given to the first group, and diet CE-2 containing 0.1% of 4-O-methylascochlorin diethylacetal (MAC-DE) was given to the second group of mice and diet CE-2 containing 0.05% of MAC-DE was given to the third group. […] After 13 weeks, the livers and the epididymal adipose tissues were removed from the mice and lipid was extracted by the Folch method and the triglyceride content was determined. As a result, the triglyceride content in the 0.05% MAC-DE group was reduced 27%, and the neutral fat content in the 0.1% MAC-DE group was reduced 35%. From this fact it would be understood that MAC-DE inhibits internal fat accumulation.

[6] = tested on: Ehrlich ascites carcinoma; assay: Inhibition of Ehrlich solid tumor; type: in vivo, mouse; conditions: 7 days, 21st day
Protocol: Eighteen five-week-old ICR male mice were subcutaneously inoculated with 10^6 cells of Ehrlich ascites carcinoma […] and after 24 hours, and the mice were classified into three groups of six mice, and 4-O-methylascochlorin diethylacetal (MAC-DE) was suspended in 0.2% Tween-80 and 1 mg/kg and 4 mg/kg were orally administered to the first group and the second group twice a day at 9:00 and 20:00, respectively, and a MAC-DE-free Tween-80 aqueous solution was given to the third group as a control group. The administration was continued for successive 7 days and after completion of the administration, the mice were fed for two weeks. On the 21st day, a nodular tumor was removed from the mice and the body weight was determined and the effect of MAC-DE on the inhibition of tumor growth was examined.

**Q.** With `CC(C=CC1(C)C(C)CCC(=O)C1C)=CCc1c(O)c(C=O)c(C)c(Cl)c1OCC(=O)O` (centres unmarked) [AS-6, 4-O-carboxymethylasco-chlorin] as the molecule, how does the “soluble in water at a concentration” value ([1]; pH of 7.2 to 7.7 in the small intestine) read?
**A.** The value was at least 6%.

**Q.** And the carbohydrate metabolism (C57BL ksj (db/db))?
**A.** The carbohydrate metabolism was “improves in the carbohydrate metabolism”.

**Q.** What about the “toxicity to the liver” value ([2]; oral, blood concentration quickly rises) of the same molecule?
**A.** The value was “the toxicity to the liver is easily exhibited”.

**Q.** And the excretion ([2]; orally administered to an animal)?
**A.** Its excretion is “quickly excreted”.

**Q.** For `COc1c(Cl)c(C)c(C=O)c(O)c1C/C=C(C)/C=C/[C@@]1(C)[C@H](C)CCC(=O)[C@@H]1C` [MAC, 4-O-Methylascochlorin], which solubility in water [1] is on record?
**A.** The solubility in water was “less than 0.7 μg/ml”.

**Q.** And the bioavailability ([2]; oral, animals)?
**A.** Its bioavailability is “very poor bioavailability”.

**Q.** For `CCOC(OCC)c1c(C)c(Cl)c(OC)c(C/C=C(C)/C=C/[C@@]2(C)[C@H](C)CCC(=O)[C@@H]2C)c1O` [MAC-DEA, 4-O-methylascochlorin diethylacetal], which “Total Cholesterol in Serum” value (ICR male mice [3]; 0.05% in feed) is on record?
**A.** Its value is 97 mg/dL.

**Q.** What about the “Rate of Change (total cholesterol in serum)” value (ICR male mice [3]; 0.05% in feed) of the same molecule?
**A.** Its value is −17.8%.

**Q.** What about the “Total Cholesterol in Serum” value (ICR male mice [3]; 0.1% in feed) of the same molecule?
**A.** The value was 90 mg/dL.

**Q.** What about the “Rate of Change (total cholesterol in serum)” value (ICR male mice [3]; 0.1% in feed) of the same molecule?
**A.** The value was −23.7%.

**Q.** What about the “Blood Sugar” value (db/db mice; 0.05% in feed CE-2, 7th day) of the same molecule?
**A.** Its value is 273 mg/dL.

**Q.** And the “Serum Insulin” value (db/db mice; 0.05% in feed CE-2, 7th day)?
**A.** The value was 175 ·U/ml.

**Q.** What about the “Serum Neutral Fat” value (db/db mice; 0.05% in feed CE-2, 7th day) of the same molecule?
**A.** Its value is 259 mg/dL.

**Q.** What about the “Amount of Drinking Water” value (db/db mice; 0.05% in feed CE-2, db/db mice) of the same molecule?
**A.** Its value is 5.4 ml/mouse.

**Q.** And the “Amount of Urine” value (db/db mice; 0.05% in feed CE-2, db/db mice)?
**A.** Its value is 2.5 ml/mouse.

**Q.** And the “Amount of Urine Sugar Excreted” value (db/db mice; 0.05% in feed CE-2, db/db mice)?
**A.** Its value is 47 mg/dL.

**Q.** What about the “Blood Sugar” value (db/db mice; 0.1% in feed CE-2, 7th day) of the same molecule?
**A.** The value was 239 mg/dL.

**Q.** What about the “Serum Insulin” value (db/db mice; 0.1% in feed CE-2, 7th day) of the same molecule?
**A.** The value was 132 ·U/ml.

**Q.** And the “Serum Neutral Fat” value (db/db mice; 0.1% in feed CE-2, 7th day)?
**A.** Its value is 248 mg/dL.

**Q.** And the “Amount of Drinking Water” value (db/db mice; 0.1% in feed CE-2, db/db mice)?
**A.** Its value is 3.2 ml/mouse.

**Q.** What about the “Amount of Urine” value (db/db mice; 0.1% in feed CE-2, db/db mice) of the same molecule?
**A.** The value was 1.7 ml/mouse.

**Q.** And the “Amount of Urine Sugar Excreted” value (db/db mice; 0.1% in feed CE-2, db/db mice)?
**A.** The value was 10 mg/dL.

**Q.** What about the “Blood Sugar” value (ICR male mice [4]; 0.05% in diet CE-2, Day 0) of the same molecule?
**A.** The value was 566 mg/dL.

**Q.** And the Insulin (ICR male mice [4]; 0.05% in diet CE-2, Day 0)?
**A.** The Insulin was <2 ·U/ml.

**Q.** And the “Blood Sugar” value (ICR male mice [4]; 0.05% in diet CE-2, Day 15)?
**A.** The value was 143 mg/dL.

**Q.** What about the Insulin (ICR male mice [4]; 0.05% in diet CE-2, Day 15) of the same molecule?
**A.** Its Insulin is 5 ·U/ml.

**Q.** And the “Blood Sugar” value (ICR male mice [4]; 0.05% in diet CE-2, Day 30)?
**A.** Its value is 148 mg/dL.

**Q.** And the Insulin (ICR male mice [4]; 0.05% in diet CE-2, Day 30)?
**A.** Its Insulin is 5 ·U/ml.

**Q.** What about the “Blood Sugar” value (ICR male mice [4]; 0.05% in diet CE-2, Day 45) of the same molecule?
**A.** The value was 125 mg/dL.

**Q.** And the Insulin (ICR male mice [4]; 0.05% in diet CE-2, Day 45)?
**A.** The Insulin was 6 ·U/ml.

**Q.** And the “Blood Sugar” value (ICR male mice [4]; 0.05% in diet CE-2, Day 60)?
**A.** Its value is 118 mg/dL.

**Q.** What about the Insulin (ICR male mice [4]; 0.05% in diet CE-2, Day 60) of the same molecule?
**A.** The Insulin was 6 ·U/ml.

**Q.** And the “Blood Sugar” value (ICR male mice [4]; 0.1% in diet CE-2, Day 0)?
**A.** Its value is 583 mg/dL.

**Q.** What about the Insulin (ICR male mice [4]; 0.1% in diet CE-2, Day 0) of the same molecule?
**A.** The Insulin was <2 ·U/ml.

**Q.** What about the “Blood Sugar” value (ICR male mice [4]; 0.1% in diet CE-2, Day 15) of the same molecule?
**A.** Its value is 121 mg/dL.

**Q.** And the Insulin (ICR male mice [4]; 0.1% in diet CE-2, Day 15)?
**A.** Its Insulin is 5 ·U/ml.

**Q.** And the “Blood Sugar” value (ICR male mice [4]; 0.1% in diet CE-2, Day 30)?
**A.** The value was 118 mg/dL.

**Q.** What about the Insulin (ICR male mice [4]; 0.1% in diet CE-2, Day 30) of the same molecule?
**A.** Its Insulin is 6 ·U/ml.

**Q.** And the “Blood Sugar” value (ICR male mice [4]; 0.1% in diet CE-2, Day 45)?
**A.** Its value is 119 mg/dL.

**Q.** What about the Insulin (ICR male mice [4]; 0.1% in diet CE-2, Day 45) of the same molecule?
**A.** Its Insulin is 6 ·U/ml.

**Q.** And the “Blood Sugar” value (ICR male mice [4]; 0.1% in diet CE-2, Day 60)?
**A.** Its value is 131 mg/dL.

**Q.** And the Insulin (ICR male mice [4]; 0.1% in diet CE-2, Day 60)?
**A.** Its Insulin is 6 ·U/ml.

**Q.** What about the “triglyceride content, reduction” value (ICR male mice [5]; 0.05% in diet) of the same molecule?
**A.** The value was 27%.

**Q.** And the “triglyceride content, reduction” value (ICR male mice [5]; 0.1% in diet)?
**A.** Its value is 35%.

**Q.** What about the “triglyceride content, reduction” value (ddY male mice; 0.05% in diet) of the same molecule?
**A.** The value was 27%.

**Q.** What about the “neutral fat content, reduction” value (ddY male mice; 0.1% in diet) of the same molecule?
**A.** Its value is 35%.

**Q.** What about the “Inhibition Ratio (tumor)” value ([6]; 1 mg/kg oral twice a day) of the same molecule?
**A.** The value was 81%.

**Q.** And the “Weight of Tumor” value ([6]; 1 mg/kg oral twice a day)?
**A.** Its value is 0.25 g/mouse.

**Q.** What about the “Inhibition Ratio (tumor)” value ([6]; 4 mg/kg oral twice a day) of the same molecule?
**A.** The value was 96%.

**Q.** What about the “Weight of Tumor” value ([6]; 4 mg/kg oral twice a day) of the same molecule?
**A.** The value was 0.06 g/mouse.
